≈ marks a conversion by molar mass, not a printed value.
Assays:
[1] = system: HRV 14; assay: Cytopathic effect (CPE) inhibition assay; type: cell-based, human rhinovirus; conditions: Human rhinovirus sp., HeLa, 72 h, host cell HeLa, 3 days, MEM/2% FBS, MTT assay; read-out: EC50 HRV 14
[2] = system: HRV 21; assay: Cytopathic effect (CPE) inhibition assay; type: cell-based, human rhinovirus; conditions: Human rhinovirus sp., 72 h; host cell HeLa, 3 days, MEM/2% FBS, MTT assay; read-out: EC50 HRV 21
[3] = system: HRV 71; assay: Cytopathic effect (CPE) inhibition assay; type: cell-based, human rhinovirus; conditions: Human rhinovirus sp., 72 h; host cell HeLa, 3 days, MEM/2% FBS, MTT assay; read-out: EC50 HRV 71
[4] = system: coxsackievirus B1 (Cox B1); assay: Multicycle cytopathic effect (CPE) reduction assay; type: cell-based; conditions: Enterovirus B, B1, 72 h, read-out: EC50 CoxB1
[5] = system: coxsackievirus B3 (Cox B3); assay: Multicycle cytopathic effect (CPE) reduction assay; type: cell-based; conditions: Enterovirus B, B3, 72 h, read-out: EC50 CoxB3
[6] = system: poliovirus 3 (PV3); assay: microbe, parasite or virus in culture; type: cell-based; conditions: Enterovirus C, 72 h, read-out: EC50 PV3
[7] = in vitro; conditions: human
[8] = Cytotoxicity (CC50) in multicycle CPE reduction assay, MTS; conditions: human

| Compound | EC50 [1] [µg/mL] | EC50 [2] [µg/mL] | EC50 [3] [µg/mL] | EC50 [4] [µg/mL] | EC50 [5] [µg/mL] | EC50 [6] [µg/mL] | CC50 [7] [µg/mL] | CC50 at 3 days [8] [µg/mL] |
| --- | --- | --- | --- | --- | --- | --- | --- | --- |
| CNC(=O)C(=O)NC12C(=O)c3ccccc3C1(O)Oc1cc(C(C)C)ccc12 (stereo not shown) [Example 27, N1-(4b-hydroxy-7-isopropyl-10-oxo-4b, 10-dihydro-9bH-indeno[1,2-b]benzofuran-9b-yl)-N2-methyl oxal amide] | < 1 | > 10 | > 10 | < 0.1 | < 0.1 | < 10 | > 10 | > 10 |
| CC(C)c1ccc2c(c1)OC1(O)c3ccccc3C(=O)C21NC(=O)CN (stereo not shown) [Example 64, 2-amino-N-(4b-hydroxy-7-isopropyl-10-oxo-4b, 10-dihydro-9bH-indeno[1,2-b]benzofuran-9b-yl)acetamide] | < 10 | > 10 | > 10 | < 0.1 | < 0.1 | > 10 | > 10 | > 10 |
| CCNC(=O)OC12C(=O)c3ccccc3C1(OC)Oc1cc(C(C)C)ccc12 (stereo not shown) [Example 62, 7-isopropyl-4b-methoxy-10-oxo-4b, 10-dihydro-9bH-indeno[1,2-b]benzofuran-9b-yl ethyl carbamate] | > 10 | > 10 | > 10 | < 10 | < 10 | > 10 | > 10 | > 10 |
| CC(C)c1ccc2c(c1)OC1(O)c3c(cccc3[N+](=O)[O-])C(=O)C21NC(=O)C(=O)N(C)C (stereo not shown) [Example 30, N1-(4b-hydroxy-7-isopropyl-4-nitro-10-oxo-4b, 10-dihydro-9bH-indeno[1,2-b]benzofuran-9b-yl)-N2-N2-dimethyl oxal amide] | > 10 | > 10 | > 10 | < 10 | < 10 | > 10 | > 10 | > 10 |
| Cc1cccc(C)c1NC(=O)C(=O)NC12C(=O)c3cccc([N+](=O)[O-])c3C1(O)Oc1cc(C(C)C)ccc12 (stereo not shown) [Example 26, N1-(2,6-dimethylphenyl)-N2-(4b-hydroxy-7-isopropyl-4-nitro-10-oxo-4b, 10-dihydro-9bH-indeno[1,2-b]benzofuran-9b-yl)oxal amide] | < 10 | > 10 | > 10 | < 10 | < 10 | > 10 | > 10 | > 10 |
| CC(C)c1ccc2c(c1)OC1(O)c3ccccc3C(=O)C21NC(=O)C(=O)CBr (stereo not shown) [Example 41, 3-bromo-N-(4b-hydroxy-7-isopropyl-10-oxo-4b, 10-dihydro-9bH-indeno[1,2-b]benzofuran-9b-yl)-2-oxo propanamide] | < 10 | > 10 | > 10 | < 0.1 | < 0.1 | > 10 | > 10 | > 10 |
| CC(=O)C(=O)NC12C(=O)c3ccccc3C1(O)Oc1cc(C(C)C)ccc12 (stereo not shown) [Example 4, N-(4b-hydroxy-7-isopropyl-10-oxo-9b, 10-dihydro-4bH-indeno[1,2-b]benzofuran-9b-yl)-2-oxo propanamide] | < 0.1 | > 9.02 | > 9.02 | < 0.01 | < 0.01 | < 1 | 9.02 (≈ 24.7 µM) | > 10 |
| CCCCCCC(=O)C(=O)NC12C(=O)c3cccc([N+](=O)[O-])c3C1(O)Oc1cc(C(C)C)ccc12 (stereo not shown) [Example 35, N-(4b-hydroxy-7-isopropyl-4-nitro-10-oxo-4b, 10-dihydro-9bH-indeno[1,2-b]benzofuran-9b-yl)-2-oxo octanamide] | < 10 | > 10 | > 10 | < 1 | < 1 | < 10 | > 10 | > 10 |

From patent publication US9951058B2, “Compound, pharmaceutically acceptable salt or optical isomer thereof, method for preparing the same, and pharmaceutical composition for prevention or treatment of viral diseases containing same as active ingredient” (Korea Research Institute of Chemical Technology, priority 2012, dated 2018)
